# Laboratory results: US20250360187A1, “HEPCIDIN MIMETICS FOR TREATMENT OF SICKLE CELL DISEASE” (Protagonist Therapeutics, Inc., priority 2022, published 2025)
# “Also recorded” adds a separate entry of the source. Where a SMILES comes first, the peptide text is derived from it.
# System: Townes SCD mice
# Test: Efficacy study of hepcidin mimetics in a mouse model of sickle cell disease (CBC, serum hemolysis biomarkers, spleen and liver weights)
# Assay type: in vivo
# Details: for % Retics / Abs Retics / HCT / HGB / MCH / MCHC / MCV / RBC / LDH / Total bilirubin: 4 weeks, mean ± SD; for LDH / Total bilirubin: serum
# Protocol: Compound 46, a hepcidin mimetic, was administered subcutaneously at 1.0 mg/kg (group 3, N=9) or 2.5 mg/kg (group 4, N=9) in Townes SCD mice. 36 Townes SCD and 6 129S1/SvlmJ (wild-type), female mice, 5 weeks old upon delivery. A control group of wild-type mice (groups 1, N=6) was treated with vehicle as well as another SCD mice (group 2, N=9). All mice were dosed three times per week (TIW). All mice were maintained on an iron-adjusted diet (TD.140258, 35 ppm iron) throughout the study. Collections and necropsies were performed 24 hours post-last dose of compound or vehicle. After 4 weeks on study, animals from each group were euthanized, EDTA whole blood collected for CBC and serum was collected for hemolysis biomarker analysis. Spleens and livers were weighed at terminus. Liver, spleen, kidney, heart and brain were collected for future analysis. Serum and urine were collected to analyze chemistry markers, such as bilirubin, LDH (lactate dehydrogenase), haptoglobin, urine creatinine, urine total protein and urine urea nitrogen.
# As shown in FIG. 4A and FIG. 4B, reticulocytes were counted both with the automated analyzer as well as manually from a new methylene blue stained blood smear by counting the number of positive stained cells encountered in 500 erythrocytes and calculating the percentage.
# [1] = SCD mice, compared to vehicle, across doses
# [2] = Townes SCD mice, Dose 1 (1.0 mg/kg s.c. TIW)
# [3] = Townes SCD mice, Dose 2.5 (2.5 mg/kg s.c. TIW)
structure (smiles),measurement,setting,value
"CCCCCCCCCCCCCCCC(=O)N[C@@H](CCC(=O)NCCCC[C@@H]1NC(=O)[C@H]([C@@H](C)CC)NC(=O)[C@@H](NC(=O)[C@@H]2CCCN2C(=O)[C@H](Cc2ccccc2)NC(=O)[C@H](Cc2cnc[nH]2)NC(=O)[C@@H](NC(=O)[C@H](CCC(=O)O)NC(=O)CC(C)C)[C@@H](C)O)CSSC[C@@H](C(=O)N[C@@H](CCCCN)C(N)=O)NC(=O)CNC(=O)[C@H](CCCCN)NC(=O)[C@H](CO)NC(=O)[C@H](CCCNC(=N)N)NC(=O)[C@@H]2CCCN2C(=O)[C@H](CCC(=O)O)NC(=O)[C@H](Cc2ccccc2)NC1=O)C(=O)O [Compound 46, Isovaleric_Acid-ETHFPCI(K(IsoGlu_Palm))FEPRSKGCK-NH2] (HELM PEPTIDE1{[CC(C)CC(=O)[*:2]].E.T.H.F.P.C.I.K.F.E.P.R.S.K.G.C.K.[am]}|PEPTIDE2{[CCCCCCCCCCCCCCCC(=O)[*:2]].[gGlu]}$PEPTIDE1,PEPTIDE2,9:R3-2:R2|PEPTIDE1,PEPTIDE1,7:R3-17:R3$$$V2.0)",RBC count (in words),"SCD mice, 2.5 mg/kg dose",significantly reduced
same,Percent of reticulocytes (in words),"SCD mice, 2.5 mg/kg dose, compared to vehicle control",decreased percent of reticulocytes significantly
same,Mean corpuscular hemoglobin concentration (MCHC) (in words),"SCD mice, 2.5 mg/kg, compared to vehicle control",significant increase in MCHC
same,Hematocrit (HCT) (in words),"SCD mice, across doses",significant reduction of HCT in a dose dependent manner
same,Lymphocyte count (in words),"SCD mice, across doses",significant WBC and lymphocyte reduction in a dose dependent manner; also recorded: alleviated elevated white blood cell (WBC) and lymphocytes counts
same,Neutrophil count (in words),"SCD mice, across doses",significantly decreased neutrophil count in a dose dependent manner; also recorded: alleviated elevated neutrophil and monocyte counts
same,Serum lactate dehydrogenase (LDH) (in words),"SCD mice, across doses",significantly reduced both parameters in a dose dependent manner
same,Serum total bilirubin (in words),"SCD mice, across doses",significantly reduced both parameters in a dose dependent manner
same,White blood cell (WBC) count (in words),"SCD mice, across doses",significant WBC and lymphocyte reduction in a dose dependent manner; also recorded: alleviated elevated white blood cell (WBC) and lymphocytes counts
same,Mean corpuscular volume (MCV) (in words),"SCD mice, across doses, compared to the vehicle group",significant reduction of MCV in a dose dependent manner
same,Hgb level (in words),"SCD mice, all three dose groups",significantly reduced in all three dose groups
same,Mean corpuscular hemoglobin (MCH) (in words),"SCD mice, compared to vehicle control",significant reduction in MCH
same,Liver to body weight ratios (in words),[1],significantly lower in a dose dependent manner
same,Liver weight / liver size (in words),[1],significantly lower in a dose dependent manner; also recorded: reduces liver size
same,Spleen to body weight ratios (in words),[1],significantly and dose-dependently lower
same,Spleen weights / spleen size (in words),[1],significantly and dose-dependently lower; also recorded: reduces spleen size
same,Monocyte count (in words),Townes SCD mice,alleviated elevated neutrophil and monocyte counts
same,% Retics,[2],65.78%
same,Abs Retics,[2],2612 K/uL
same,HCT,[2],29.62%
same,HGB,[2],5.89 g/dL
same,MCH,[2],9.89 pg
same,MCHC,[2],19.82 g/dL
same,MCV,[2],50.11 fL
same,RBC,[2],5.94 M/uL
same,% Retics,[3],50.33%
same,Abs Retics,[3],1195 K/uL
same,HCT,[3],16.27%
same,HGB,[3],4.39 g/dL
same,MCH,[3],9.82 pg
same,MCHC,[3],23.22 g/dL
same,MCV,[3],42.56 fL
same,RBC,[3],4.49 M/uL
same,LDH,[2],610.6 U/L
same,Total bilirubin,[2],2.16 mg/dL
same,LDH,[3],372.3 U/L
same,Total bilirubin,[3],1.13 mg/dL
